Assays:
[1] = test system: murine Lewis Lung Carcinoma (LLC); test: In vivo anticancer activity, LLC solid tumor model; conditions: LLC-bearing C57BL mice, daily dosing days 7-14, evaluated day 15; 5i 20 mg kg−1 i.p., gemcitabine 60 mg kg−1, cisplatin 3 mg kg−1
Description: Seven days after tumor inoculation the tumor-bearing mice were randomized into vehicle control and treatment groups.
The LLC was implanted intramuscularly (i.m.) as a 2 × 10^6 cell inoculum into the right hind leg of 8-week-old male and female C57BL mice (24 ± 3 g body weight). After 7 days from tumor implantation (visible tumors), mice were randomly divided into 4 groups (8 animals per group) and subjected to daily i.p. administration. […] At day 15, animals were sacrificed, the legs were amputated at the proximal end of the femur, and the inhibition of tumor growth was determined from the difference in the weights of the tumor-bearing leg and the healthy leg of the animals, expressed as a percentage referenced to the control animals. Body weight was measured at day 0 and from day 7 onwards every 2 days and was taken as a parameter for systemic toxicity. All presented values are the means ± SD of no less than three measurements.

[2] = test system: PSN-1 cells; test: TEM analysis of mitochondria; assay type: cell-based, human; conditions: 24 h, IC50 concentrations
Description: In addition, TEM analyses were performed on PSN-1 cancer cells after 24 h treatment with IC50 concentrations of the representative compounds 5i and 6h.
About 10^6 PSN-1 cancer cells were seeded in 24-well plates and, after 24 h incubation, were treated with IC50 concentrations of tested compounds and incubated for an additional 24 h. Cells were then washed with cold PBS, harvested, and directly fixed with 1.5% glutaraldehyde buffer with 0.2 M sodium cacodylate, pH 7.4. After washing with buffer and postfixation with 1% OsO4 in 0.2 M cacodylate buffer, specimens were dehydrated and embedded in epoxy resin (Epon Araldite). Sagittal serial sections (1 μm) were counterstained with toluidine blue; thin sections (90 nm) were given contrast by staining with uranyl acetate and lead citrate. Micrographs were taken with a Hitachi H-600 electron microscope (Hitachi, Tokyo, Japan) operating at 75 kV. All photos were typeset in Corel Draw 11.

[3] = test system: S232 PDH E1 alpha protein (PDHA1) phosphorylation in LLC tissue; test: PDH phosphorylation in mice tumor tissues (ELISA); assay type: in vivo, C57BL mice; conditions: LLC-bearing mice, 5i 20 mg kg−1 daily i.p., tumors collected day 15
Description: As a proof-of-concept of PDK inhibitory activity of the newly developed 3-amino 1,2,4-triazines, we also assessed the phosphorylation level of S232-PDHA1 in tumor samples of animals treated with 5i. Tumors of treated animals collected on day 15 were homogenized and phopho-S232-PDHA1 levels were quantified by an ELISA Kit.
The phosphorylation level of S232 PDH E1 alpha protein (PDHA1) in LLC tissue homogenates was assessed by ELISA Kit (Abcam) following the manufacturer’s instructions. The amount of phosphorylated S232 PDHA1 protein was detected by measuring the absorbance of each well at 600 nm, using a Bio-Rad 680 microplate reader.

With `Cn1cc(-c2nnc(N)nc2-c2cn(C)c3ccc(F)cc23)c2ccccc21` [5i] the “reduction in tumor growth compared to the control group” value [1] was “about 80%”, the “mitochondrial morphology (TEM)” value [2] was “dramatic swelling of the mitochondria” and the “phospho-S232-PDHA1 level in tumor samples” value [3] was “dramatically reduced PDH phosphorylation”.
